# Experimental data published in PubChem BioAssay AID394.
# Molecular target: Tyrosine-protein phosphatase non-receptor type 14 (Homo sapiens) (UniProt Q15678)
# Experiment: compound-induced PTPN14 thermal stabilization – biophysical, human, DSF, SYPRO orange (AID 394)
# Details: recombinant PTPN14, DSF thermal shift, at 10 µM, protein 2 µM, buffer 10 mM HEPES, pH 7.5, NaCl 150 mM, stronger effect = higher value
# Chain of Tyrosine-protein phosphatase non-receptor type 14 (Homo sapiens) (Q15678 whole entry, looked up): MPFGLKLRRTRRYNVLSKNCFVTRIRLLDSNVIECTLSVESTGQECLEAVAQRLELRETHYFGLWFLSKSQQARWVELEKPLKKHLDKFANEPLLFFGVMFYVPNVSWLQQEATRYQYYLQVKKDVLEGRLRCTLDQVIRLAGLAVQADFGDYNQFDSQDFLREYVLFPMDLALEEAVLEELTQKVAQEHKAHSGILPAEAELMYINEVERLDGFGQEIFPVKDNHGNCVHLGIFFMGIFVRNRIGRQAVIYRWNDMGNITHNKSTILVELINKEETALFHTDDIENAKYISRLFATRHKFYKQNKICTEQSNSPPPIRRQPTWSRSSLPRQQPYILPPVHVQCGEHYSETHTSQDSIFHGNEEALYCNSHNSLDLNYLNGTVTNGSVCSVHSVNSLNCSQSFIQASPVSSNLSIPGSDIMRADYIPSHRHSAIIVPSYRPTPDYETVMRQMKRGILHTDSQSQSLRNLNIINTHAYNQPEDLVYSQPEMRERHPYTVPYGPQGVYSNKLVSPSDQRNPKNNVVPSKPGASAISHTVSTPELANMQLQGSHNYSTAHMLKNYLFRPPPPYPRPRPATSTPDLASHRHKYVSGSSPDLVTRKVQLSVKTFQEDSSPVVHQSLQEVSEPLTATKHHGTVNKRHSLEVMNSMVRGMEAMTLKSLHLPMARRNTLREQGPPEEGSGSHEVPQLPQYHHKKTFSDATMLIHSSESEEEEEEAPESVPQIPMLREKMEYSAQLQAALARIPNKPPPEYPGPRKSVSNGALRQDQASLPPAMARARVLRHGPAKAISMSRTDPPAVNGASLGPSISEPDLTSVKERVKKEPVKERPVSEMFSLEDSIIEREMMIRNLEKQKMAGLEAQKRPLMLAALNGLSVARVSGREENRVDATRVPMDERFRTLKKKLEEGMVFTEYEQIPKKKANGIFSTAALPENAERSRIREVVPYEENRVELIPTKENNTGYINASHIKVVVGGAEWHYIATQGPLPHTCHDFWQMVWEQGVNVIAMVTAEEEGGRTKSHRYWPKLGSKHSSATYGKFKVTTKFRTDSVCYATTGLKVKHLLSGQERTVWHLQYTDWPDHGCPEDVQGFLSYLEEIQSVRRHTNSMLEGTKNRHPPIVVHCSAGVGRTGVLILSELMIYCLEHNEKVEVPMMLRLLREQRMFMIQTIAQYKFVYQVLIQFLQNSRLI
SMILES,"Tm shift (DTT 2000 µM, with dithiothreitol)",Tm shift
O=C([O-])c1ccccn1.OO.OO.[K+].[K+].[O]=[V],2.3 Celsius,–
O=C(O)c1ccc([O-])cn1.OO.OO.[K+].[K+].[O]=[V],–,4.45 Celsius
O=C(O)c1ccc(O)cn1.OO.[O]=[V],–,5.95 Celsius
OO.OO.[K+].[O]=[V].c1ccc(-c2ccccn2)nc1,–,4.81 Celsius
OO.OO.[K+].[O]=[V].c1cnc2c(c1)ccc1cccnc12,–,5.88 Celsius
